Several values for one entry are separate records, joined by “and”; a condition that tells them apart may be missing. Equal values may be shown once.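 Growth conditions: 96-well plates. Treatment: test compound, 48 hours, 5 concentrations. Analysis: linear interpolation between bracketing concentrations; unreached endpoints set to highest concentration. GI50 marks 50% less growth. TGI is the concentration that stops growth completely.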
What was measured:
Experiment in all cases: growth of human tumour cells (NCI), 48 h
SK-OV-3 ovarian = tested on: SK-OV-3 ovarian
NCI-H23 lung = tested on: NCI-H23 lung
SK-MEL-2 melanoma = tested on: SK-MEL-2 melanoma
786-0 renal = tested on: 786-0 renal
LOX IMVI melanoma = tested on: LOX IMVI melanoma
SR leukemia = tested on: SR leukemia
SNB-75 CNS = tested on: SNB-75 CNS
OVCAR-5 ovarian = tested on: OVCAR-5 ovarian
A498 renal = tested on: A498 renal
T-47D breast = tested on: T-47D breast

Row | SMILES | TGI (SK-OV-3 ovarian) [µM] | TGI (NCI-H23 lung) | TGI (SK-MEL-2 melanoma) [µM] | TGI (786-0 renal) | TGI (LOX IMVI melanoma) [µM] | TGI (SR leukemia) [µM] | TGI (SNB-75 CNS) [µM] | TGI (OVCAR-5 ovarian) [µM] | TGI (A498 renal) [µM] | GI50 (SK-OV-3 ovarian) | GI50 (NCI-H23 lung) | GI50 (SK-MEL-2 melanoma) [µM] | GI50 (786-0 renal) | GI50 (LOX IMVI melanoma) | GI50 (T-47D breast) | TGI (T-47D breast) | GI50 (SNB-75 CNS) | GI50 (A498 renal) | GI50 (OVCAR-5 ovarian) | GI50 (SR leukemia) [µM]
1 | O=C1c2ccccc2C2(O)NC(=S)N(c3ccccc3)C12O (centres undefined) | > 100 | > 100 µM | > 100 | > 100 µM | > 100 | > 100 | > 100 | > 100 |  |  |  |  |  |  |  |  |  |  |  | 
2 | CN1CCCCCC(=N\O)/C(=N/O)CCCCC1 |  | > 100 µM |  | > 100 µM | > 100 | > 100 | > 100 | > 100 | > 100 |  |  |  |  |  |  |  |  |  |  | 
3 | O=C(N/N=C/c1ccccc1Cl)c1ccccc1Nc1ccnc(C(F)(F)F)c1 | 5.31 | 8.18 µM | 5.02 | 3.53 µM | 5.21 |  | 26.7 | 17.3 | 5.99 | 1.43 µM | 1.82 µM | 1.79 | 0.616 µM | 1.33 µM | 1.33 µM | 6.41 µM | 2.41 µM | 1.76 µM | 2.75 µM | 
4 | CC(=O)/C(=C\C1=CCCO1)C(=O)Nc1ccccc1C | > 100 | > 100 µM | > 100 | > 100 µM | > 100 | > 100 |  | > 100 |  |  |  |  |  |  |  |  |  |  |  | 
5 | CC[Si](CC)(CC)OC[C@]1([C@@H]2COC(C)(C)O2)CC=CC(=O)O1 | > 100 | > 100 µM | > 100 | > 100 µM | 81 | 95.1 |  | > 100 | 75.7 | 59.9 µM | 23.3 µM | 41.1 | 38.1 µM | 25 µM | > 100 µM | > 100 µM |  | 20.9 µM | > 100 µM | 23
6 | COc1c(Cl)c2c(c(OC)c1OC)-c1ccc(SC)c(=O)cc1[C@@H](NC(=O)OCC(F)(F)F)CC2 | > 100 | > 100 µM | > 100 | > 30.4 µM | > 100 | 17.9 | > 100 | > 100 | < 0.01 | < 0.01 µM | < 0.01 µM | 4.2 | < 0.01 µM | < 0.01 µM |  |  | < 0.01 µM | < 0.01 µM | < 0.01 µM | < 0.01
7 | CCCCCCCCCCC(O)C1CCC(C(O)CCC(O)C2CCC(CCCCCCC[C@H](O)CC3=C[C@@H](C)OC3=O)O2)O1 (some centres undefined) | > 66.1 | 69.4 µM | > 100 | 53.9 µM | > 100 | > 100 | 25.4 | > 100 | > 82 |  |  |  |  | 2.24 µM |  |  | 2.92 µM |  |  | 
8 | O=c1ccnc2c1ccc1[nH]cccc12 | > 100 | > 100 µM | > 100 | > 100 µM | > 100 | > 100 | > 100 | > 100 | > 100 |  |  |  |  |  |  |  |  |  |  | 
9 | COc1cc(C=Nc2ccc(C(C)C)cc2)cc(OC)c1OC | > 100 | > 100 µM | > 100 | > 100 µM | > 100 | > 100 | > 100 | > 100 | > 100 |  |  |  |  |  |  |  |  |  |  | 
10 | COc1ccc(C(=O)OC2C=COC(C)C2OC(=O)c2ccc(OC)cc2)cc1 (centres undefined) | > 100 | 36.1 µM | 43.2 | > 86.6 µM | 29.8 | 61.9 | 51.7 | > 100 | > 100 |  |  |  |  |  |  |  |  |  |  | 
11 | CCOC(=O)NC(=O)c1cn(CCCOC(=O)CCCCCCCCCCC(=O)OCCCn2cc(C(=O)NC(=O)OCC)c(=O)n(C)c2=O)c(=O)n(C)c1=O | > 100 | > 100 µM | > 100 | > 100 µM | > 100 | > 100 | > 100 | > 100 | > 100 |  |  |  |  |  |  |  |  |  |  | 
12 | COC(=O)C12CC3CC(C1)CC(C(=O)OC)(C3)C2 | > 100 | > 100 µM |  | > 100 µM | > 100 | > 100 | > 100 | > 100 | > 100 |  |  |  |  |  |  |  |  |  |  | 
13 | CN(C)CC/C(=N\Nc1ccccc1)c1ccccc1 | 34.7 | > 100 µM | 27.2 | 51.2 µM |  | > 100 |  | 30.9 |  |  |  |  |  |  |  |  |  |  |  | 
14 | COC(=O)C(=O)C(C(=O)C(=O)Nc1ccccc1C(C)=O)c1nc2ccc(C(=O)c3ccccc3)cc2[nH]c1=O (centres undefined) | > 100 | > 100 µM | > 100 | > 100 µM | > 100 |  | > 100 | > 100 | > 100 |  |  |  |  |  |  | > 100 µM |  |  |  | 
15 | COC(=O)C(=O)C(C#N)c1ccc(CC#N)cc1 (centres undefined) | > 100 | > 100 µM | > 100 | > 100 µM | > 100 | > 100 | > 100 |  |  |  |  |  |  |  |  |  |  |  |  | 
16 | Nc1nc(=S)[nH]c(C(=O)Nc2ccc(Cl)c(Cl)c2)c1-c1ccc(Cl)cc1 | > 100 | > 100 µM |  | > 100 µM | > 100 | > 100 | > 100 | > 100 | > 100 |  |  |  |  |  |  |  |  |  |  | 
17 | CCN(CC)CCNC(=O)c1nn(C)c(=S)[nH]c1=S | > 100 | > 100 µM | > 100 | > 100 µM | > 100 | > 100 | > 100 | > 100 |  |  |  |  |  |  |  |  |  |  |  | 
18 | O=P([O-])(O)OP(=O)([O-])O.[NH-][C@@H]1CCCC[C@H]1[NH-].[Pt+4] | > 100 | > 100 µM and 91.1 µM | > 100 | > 100 µM and 76.6 µM | > 100 |  | > 100 | > 100 | > 100 | 98.4 µM and 37.4 µM | 18.4 µM and 12.3 µM | > 53.2 | 20.6 µM and 7.98 µM | 15.6 µM and 6.86 µM | 18.4 µM and 4.82 µM | > 100 µM and 39.5 µM | > 100 µM and 34 µM | > 100 µM and 18.3 µM | > 52.1 µM and 14.5 µM | 
19 | CC/C(=C(/CC)c1ccc(O)cc1)c1ccc([O-])cc1.CC/C(=C(/CC)c1ccc(O)cc1)c1ccc([O-])cc1.O=C([CH-]C(=O)c1ccccc1)c1ccccc1.O=C([CH-]C(=O)c1ccccc1)c1ccccc1.[Ti+4] | 52.2 |  | 25.2 | 33.1 µM | 27.5 | > 100 |  | 46.7 |  | 19.8 µM |  | 11.9 | 13.7 µM | 12.5 µM |  |  |  |  | 23.9 µM | 9.89
20 | COC(=O)C12C3C4C5C3(C#N)C1C5(C(=O)OC)C42C(=O)N(C(C)C)C(C)C (centres undefined) | > 100 | > 100 µM | > 100 | > 100 µM | > 100 | 33.3 | > 100 | > 100 | > 100 |  |  |  |  |  |  |  |  |  |  | 
21 | CCOC(=O)C1=C(Nc2ccc(Cl)cc2Cl)OC/C1=N\NS(=O)(=O)c1ccc(C)cc1 | > 100 | > 100 µM | > 100 | > 100 µM | > 100 | > 100 | > 100 | > 100 | > 100 |  |  |  |  |  |  |  |  |  |  | 
22 | Cc1ccc(NC(=O)CC(=O)n2nc(-c3ccccc3)c(N=Nc3ccccc3Cl)c2-c2ccccc2)cc1 | 60.5 | > 100 µM | > 100 | > 100 µM | > 100 | > 100 | 42.1 | > 100 | > 100 |  |  | > 100 |  |  |  |  |  |  |  | 
23 | C[C@]12CC[C@H](OCCC#N)CC1=CC[C@@H]1C2CC[C@]2(C)/C(=N/OCCC#N)CCC12 (some centres undefined) | > 100 | > 100 µM | > 100 | > 76.6 µM | > 100 | > 100 | > 78.9 | > 100 | > 100 |  |  |  |  |  |  |  |  |  |  | 
24 | O=C(Nc1ccc(F)cc1)C(=O)C(C1OC(=O)c2ccccc21)[N+](=O)[O-] (centres undefined) | > 100 | > 100 µM | > 100 | > 100 µM | > 100 | > 100 | > 100 | > 100 | > 100 |  |  |  |  |  |  |  |  |  |  | 
25 | Cc1nc2cc(N)c(F)cc2[nH]1 | > 100 | > 100 µM | > 100 | > 100 µM | > 100 | > 100 |  | > 100 | > 100 |  |  |  |  |  |  |  |  |  |  | 
26 | CC1(C)CCC[C@@]2(C)C1CC[C@H]1CC(O)C3(C)CCC12C3 (some centres undefined) | 36.3 | 32.8 µM |  | 31.5 µM | 28.9 | 46.7 | 39.3 | 32.2 |  |  |  |  |  |  |  |  |  |  |  | 
27 | Nc1ncn(C2C=C(CO)C(O)C2O)c(=O)n1 (centres undefined) | > 100 |  | > 100 | > 100 µM |  | > 100 | > 100 |  | > 100 |  |  |  |  |  |  |  |  |  |  | 
28 | O=C([CH-]C(=O)c1ccccc1)c1ccccc1.O=C([CH-]C(=O)c1ccccc1)c1ccccc1.O=C([CH-]C(=O)c1ccccc1)c1ccccc1.[OH3+].[Y+3] | 40 | 18.9 µM | 17.9 | 21.8 µM | 17 |  | 8.1 | 66.1 | 43.1 | 11.2 µM | 3.51 µM | 4.24 | 4.72 µM | 3.74 µM |  |  | 3.25 µM | 16.3 µM | 16.9 µM | 
29 | CC(=O)N/C(=C\c1cccc([N+](=O)[O-])c1)c1nc2c3c(ccc2[nH]1)C(=O)c1ccccc1C3=O | > 100 | > 100 µM | > 100 | > 100 µM | > 100 | > 100 | > 100 | > 100 | > 100 |  |  |  |  |  |  |  |  |  |  | 
30 | COc1ccc2c(c1)CCc1[nH]c3ccccc3c1CCCC2 | > 10 | > 10 µM |  | > 10 µM | > 10 | > 10 | > 10 | > 10 |  |  |  |  |  |  |  | > 10 µM |  |  |  | 

— PubChem BioAssay (NCI)
